Assay results taken from paper PMC10726441, “Discovery of Tumor-Targeted 6-Methyl Substituted Pemetrexed and Related Antifolates with Selective Loss of RFC Transport” (ACS Medicinal Chemistry Letters, 2023).

Key:
D4 (FRβ) CHO cells = assay: Cell proliferation assay, D4 CHO cells expressing FRβ; type: cell-based, Chinese hamster; conditions: for IC50: Cricetulus griseus, CHO, 96 h, 0-1000 nM, mean (standard error), 3-5 experiments; for RFC/FRβ Selectivity ratios: ratio of IC50 PC43-10 (RFC) to IC50 D4 (FRβ)
Text: To assess the impact of 6-methyl substitutions on the bicyclic scaffolds of the pyrrolo[2,3-d]pyrimidine antifolates 1–4 on RFC transport vis-à-vis PCFT, FRα, and FRβ, we used a unique biological readout for transport activity. This involved proliferation assays with isogenic Chinese hamster ovary (CHO) sublines derived from RFC-, FR-, and PCFT-null MTXRIIOua^R2–4 CHO cells[39],[40] engineered to express the human FRα (RT16),[25] FRβ (D4),[25] RFC (PC43–10),[41] or PCFT (R2/PCFT4).[26],[42] As these CHO cell lines are genetically identical except for their folate transporters, differences in inhibition of cell proliferation by specific cytotoxic antifolates directly reflect transporter specificities.[19],[23]−[31],[42] […]
Reagents for biological studies. Leucovorin [(6R,S) 5-formyl tetrahydrofolate] and methotrexate (MTX) was provided by the Drug Development Branch, National Cancer Institute, Bethesda, MD. Other chemicals were obtained from commercial sources in the highest available purities. Pemetrexed (PMX; 1) [N-{4-[2- (2-amino-3,4-dihydro-4-oxo-7H-pyrrolo[2,3-d]pyrimidin-5-yl)ethyl]benzoyl-L-glutamic acid] (Alimta) was purchased from LC Laboratories (Woburn, MA). The syntheses of compounds 2 and 3 were previously described.7, 8 Additional chemicals were purchased from commercial sources in the highest available purities.
Cell Culture. The reduced folate carrier (RFC), proton-coupled folate transporter (SLC46A1; PCFT) and folate receptor (FR) α- and β-null Chinese hamster ovary (CHO) cell line MTXRIIOuaR2-49 was a gift from Dr. Wayne Flintoff (University of Western Ontario, London, ON). Four sublines were derived from the R2 subline by transfection with either RFC, PCFT, FRα, or FRβ, giving rise to PC43-10 (expresses human RFC), 10 R2/PCFT4 (expresses human PCFT),11 RT16 (expresses human FRα), 12 and D4 (expresses FRβ) cells. 12 Isogenic CHO sublines were routinely cultured in α-minimal essential medium (α-MEM) supplemented with 100 units/mL penicillin/100 μg/mL streptomycin, 2 mM L-glutamine and 10% bovine calf serum (Sigma-Aldrich). Transfected sublines of R2 cells were cultured in the presence of 1.5 mg/ml G418. […]
mM L-glutamine. Cell lines were tested for Mycoplasma by PCR using a Mycloplasma testing kit (Venor™ GeM Mycoplasma Detection Kit, Sigma). Frozen stocks were generated from authenticated Mycoplasma-free cultures.
(§1) For cell proliferation assays, CHO, KB, NCI-IGROV1 and IOSE 7576 cells were plated in 96-well dishes at densities ranging from 2500-5000 cells/well in 200 μL media and treated with a range of inhibitors spanning 0-1000 nM. Experiments with RT16, D4, IGROV1, IOSE 7576 and KB cells used folate-free RPMI 1640 (FF RPMI) media with 10% dialyzed fetal bovine serum and 100 units/mL penicillin/100 μg/mL streptomycin, supplemented with 2 nM leucovorin and 2 mM L-glutamine. FR-mediated drug uptake was assessed in parallel incubations including 200 nM folic acid. For R2/PCFT4, PC43-10 and R2 CHO cells, the medium was FF-RPMI supplemented with 10% dialyzed fetal bovine serum, 100 units/mL penicillin/100 μg/mL streptomycin, 25 nM leucovorin and 2 mM L-glutamine.
(§2) Cells were treated over a 96 h period at 37° C with 5% CO2 and relative cell numbers quantified using the CellTiter-blue cell viability assay (Promega, Madison, WI) and a fluorescence plate reader. Raw data were exported to Excel for analysis and the results were plotted using Graphpad Prism 6.0. Determinations of IC50s were made […]
assays have been previously described.7, 8, 11, 12, 15-20
Using KB cells, additional proliferation assays were performed with metabolite protection in folate- and glycine-free RPMI1640 with 10% dialyzed fetal bovine serum, 2 mM L-glutamine and antibiotics with 2 nM leucovorin to identify the targeted pathway and enzyme(s). 7, 8, 11, 12, 15-20 Inhibitory effects of the novel analogs on de novo thymidylate biosynthesis and de novo purine nucleotide biosynthesis were tested by incubating drugs with thymidine (10 μM) and adenosine (60 μM), respectively. […]

[1] = system: KB nasopharyngeal carcinoma cells; assay: Cell proliferation assay, KB tumor cells; type: cell-based, human; conditions: for IC50: Homo sapiens, 96 h, 0-1000 nM, mean (standard error), 3-5 experiments
Text: (§3) For the tumor cells, except the des-methyl compound 4 with IGROV1 cells, all compounds were inhibitory. […]
(§4) Reagents for biological studies. Leucovorin [(6R,S) 5-formyl tetrahydrofolate] and methotrexate (MTX) was provided by the Drug Development Branch, National Cancer Institute, Bethesda, MD. Other chemicals were obtained from commercial sources in the highest available purities. Pemetrexed (PMX; 1) [N-{4-[2- (2-amino-3,4-dihydro-4-oxo-7H-pyrrolo[2,3-d]pyrimidin-5-yl)ethyl]benzoyl-L-glutamic acid] (Alimta) was purchased from LC Laboratories (Woburn, MA). The syntheses of compounds 2 and 3 were previously described.7, 8 Additional chemicals were purchased from commercial sources in the highest available purities. […]
(§5) KB nasopharyngeal carcinoma cells were obtained from the American Type Culture Collection (Manassas, VA) and IGROV1 (NCI-IGROV1) (passage 5) ovarian adenocarcinoma cells13 were obtained from the Division of Cancer Treatment and Diagnosis, National Cancer Institute (Frederick, MD). Normal ovary cells immortalized with SV40 (IOSE 7576)14 were obtained from the Canadian OvCaRe Cell Bank […]
(§6) (Vancouver, B.C). IGROV1, KB and IOSE 7576 cells were cultured in complete FF-RPMI with 10% fetal bovine serum and 100 units/mL penicillin/100 μg/mL streptomycin, and 2 mM L-glutamine. Cell lines were tested for Mycoplasma by PCR using a Mycloplasma testing kit (Venor™ GeM Mycoplasma Detection Kit, Sigma). Frozen stocks were generated from authenticated Mycoplasma-free cultures.
as §1, §2
(§7) assays have been previously described.7, 8, 11, 12, 15-20 […]
(§8) 7, 8, 11, 12, 15-20 Inhibitory effects of the novel analogs on de novo thymidylate biosynthesis and de novo purine nucleotide biosynthesis were tested by incubating drugs with thymidine (10 μM) and adenosine (60 μM), respectively. Incubation with glycine (130 µM) was used to assess the potential involvement of mitochondrial C1 targeted agents.15 To identify multiple metabolic targets, metabolite additions were added in combination.7, 8, 11, 12, 15-19 Finally, to distinguish targeting between the folate-dependent purine biosynthetic enzymes glycinamide ribonucleotide formyltransferase (GARFTase) and 5-aminoimidazole-4-carboxamide (AICA) ribonucleotide formyltransferase (AICARFTase), co-incubation experiments were performed using AICA hydrochloride (320 μM). 7, 8, 11, 12, […]
(§9) Statistics. The biological data reflect at least three experimental replicates. All statistical comparisons were performed using unpaired t-tests. Biological data are presented as mean values +/- standard errors using data without transformation.

[2] = system: IGROV1 epithelial ovarian cancer cells; assay: Cell proliferation assay, IGROV1 tumor cells; type: cell-based, human; conditions: for IC50: Homo sapiens, IGROV-1, 96 h, 0-1000 nM, mean (standard error), 3-5 experiments; for potency toward IGROV1 cells compared with IOSE 7576 cells (in words): IGROV1 vs IOSE 7576
Text: as §3, §4, §5, §6, §1, §2, §7, §8, §9

Question: `Nc1nc2[nH]cc(CCc3ccc(C(=O)N[C@@H](CCC(=O)O)C(=O)O)cc3)c2c(=O)[nH]1` [Compound 1, reference compound] was tested. Which IC50 (D4 (FRβ) CHO cells) did it give?
Answer: Its IC50 is 63.2 nM.

Question: What about the IC50 [1] of the same molecule?
Answer: The IC50 was 9.95 nM.

Question: What about the IC50 [2] of the same molecule?
Answer: Its IC50 is 71 nM.

Question: And the “potency toward IGROV1 cells compared with IOSE 7576 cells (in words)” value [2]?
Answer: Its value is “more active toward IGROV1 cells”.

Question: How did the IC50 (D4 (FRβ) CHO cells) turn out when `Nc1nc2[nH]cc(CCCc3ccc(C(=O)N[C@@H](CCC(=O)O)C(=O)O)cc3)c2c(=O)[nH]1` [Compound 2] was run?
Answer: The IC50 was 3.54 nM.

Question: What about the IC50 [2] of the same molecule?
Answer: Its IC50 is 52.7 nM.

Question: What about the “potency toward IGROV1 cells compared with IOSE 7576 cells (in words)” value [2] of the same molecule?
Answer: Its value is “more potent toward IOSE 7576 cells than IGROV1 cells”.

Question: Which IC50 (D4 (FRβ) CHO cells) does the source give for `Nc1nc2[nH]cc(CCc3ccc(C(=O)N[C@@H](CCC(=O)O)C(=O)O)s3)c2c(=O)[nH]1` [Compound 3] here?
Answer: The IC50 was 552 nM.

Question: And the “RFC/FRβ Selectivity ratios” value (D4 (FRβ) CHO cells)?
Answer: Its value is 0.11.

Question: What about the IC50 [1] of the same molecule?
Answer: The IC50 was 833 nM.

Question: And the IC50 [2]?
Answer: The IC50 was 320 nM.

Question: What about the “potency toward IGROV1 cells compared with IOSE 7576 cells (in words)” value [2] of the same molecule?
Answer: Its value is “more potent toward IOSE 7576 cells than IGROV1 cells”.

Question: Which IC50 (D4 (FRβ) CHO cells) does the source give for `Nc1nc2[nH]cc(CCc3ccc(C(=O)N[C@@H](CCC(=O)O)C(=O)O)c(F)c3)c2c(=O)[nH]1` [Compound 4] here?
Answer: The IC50 was 8.9 nM.

Question: What about the “RFC/FRβ Selectivity ratios” value (D4 (FRβ) CHO cells) of the same molecule?
Answer: Its value is 19.

Question: What about the IC50 [1] of the same molecule?
Answer: The IC50 was 77.3 nM.

Question: What about the “inhibition of IGROV1 cells (in words)” value [2] of the same molecule?
Answer: The value was “inactive”.

Question: And the IC50 [2]?
Answer: The IC50 was over 1000 nM.

Question: Which results are given for `Cc1[nH]c2nc(N)[nH]c(=O)c2c1CCc1ccc(C(=O)N[C@@H](CCC(=O)O)C(=O)O)cc1` [Compound 5]?
Answer: IC50 (D4 (FRβ) CHO cells): 5.7 nM; RFC/FRβ Selectivity ratios (D4 (FRβ) CHO cells): >175; IC50 [1]: 28.5 nM; IC50 [2]: 9.31 nM

Question: How did the IC50 (D4 (FRβ) CHO cells) turn out when `Cc1[nH]c2nc(N)[nH]c(=O)c2c1CCCc1ccc(C(=O)N[C@@H](CCC(=O)O)C(=O)O)cc1` [Compound 6] was run?
Answer: The IC50 was 2.61 nM.

Question: And the “RFC/FRβ Selectivity ratios” value (D4 (FRβ) CHO cells)?
Answer: The value was over 383.

Question: What about the IC50 [1] of the same molecule?
Answer: Its IC50 is 49.9 nM.

Question: And the “inhibition of IGROV1 cells (in words)” value [2]?
Answer: The value was “modestly inhibitory”.

Question: And the IC50 [2]?
Answer: Its IC50 is 750 nM.

Question: With `Cc1[nH]c2nc(N)[nH]c(=O)c2c1CCc1ccc(C(=O)N[C@@H](CCC(=O)O)C(=O)O)s1` [Compound 7] as the molecule, how does the IC50 (D4 (FRβ) CHO cells) read?
Answer: The IC50 was 2.98 nM.

Question: What about the “RFC/FRβ Selectivity ratios” value (D4 (FRβ) CHO cells) of the same molecule?
Answer: Its value is over 335.

Question: And the IC50 [1]?
Answer: The IC50 was 3.43 nM.

Question: And the “greater potency than the corresponding 6-desmethyl analogue 3, KB cells” value ([1]; KB cells, relative to compound 3)?
Answer: Its value is 242 fold.

Question: And the IC50 [2]?
Answer: Its IC50 is 2.52 nM.

Question: And the “greater potency than the corresponding 6-desmethyl analogue 3, IGROV1 cells” value ([2]; IGROV1 cells, relative to compound 3)?
Answer: The value was 127 fold.

Question: Which IC50 (D4 (FRβ) CHO cells) does the source give for `Cc1[nH]c2nc(N)[nH]c(=O)c2c1CCc1ccc(C(=O)N[C@@H](CCC(=O)O)C(=O)O)c(F)c1` [Compound 8] here?
Answer: Its IC50 is 49 nM.

Question: What about the “RFC/FRβ Selectivity ratios” value (D4 (FRβ) CHO cells) of the same molecule?
Answer: The value was over 20.

Question: And the IC50 [1]?
Answer: Its IC50 is 347 nM.

Question: And the IC50 [2]?
Answer: The IC50 was 134 nM.
